Entries after “also recorded” stand apart in the source; their conditions may differ.

Experimental findings from patent publication US20080045595A1, “METHOD OF TREATING CANCER” (Myriad Genetics, Incorporated, priority 2004, published 2008) are described below.

Series [1] has as its system MCF-7/MX, a multi drug resistant cell line over-expressing BCRP. As to the kind of experiment: Cytotoxicity (ATPLite cell growth inhibition), Example 3, BCRP over-expressing cells. The settings on record: for IC50: Homo sapiens, MCF7/MX, 72 h, read-out: IC50 (concentration that inhibited growth by 50%); for Difference in cytotoxic activity between normal (MCF-7) and BCRP over-expressing (MCF-7/MX) cell line: ratio of IC50 MCF-7/MX versus MCF-7.
Procedure: Methods: The tumor cells were plated at 5,000 cells/well in a 96 well tissue culture plate and grown for 24 hours at 37° C. The cells were then exposed to various concentrations of 5-chloro-N-[2-(4-chloro-naphtalen-1-yloxy)-5-trifluoromethyl-phenyl]-2-hydroxy-benzamide, Camptothecin or Epirubicin for 72 hours and the inhibition of cell growth due to exposure to the drug was determined using the ATPLite assay. Data are expressed as the concentration that inhibited growth by 50%.
Stock solutions of compounds dissolved in DMSO were used to prepare compound dilutions for activity determination. 5-chloro-N-[2-(4-chloro-naphtalen-1-yloxy)-5-trifluoromethyl-phenyl]-2-hydroxy-benzamide was tested at a final concentration of 100 μM, 33.3 μM, 11.1 μM, 3.7 μM, 1.23 μM, 0.4 μM and 0.13 μM for both cell lines. CPT-11 was tested at 1 μM, 0.33 μM, 0.1 μM, 0.04 μM, 0.012 μM, 0.004 μM and 0.001 μM in MCF-7 cells and at 10 μM, 3.3 μM, 1.1 μM, 0.37 μM, 0.12 μM, 0.04 μM and 0.013 μM in MCF-7/MX cells. Epirubicin was tested at 10 μM, 3.3 μM, 1.1 μM, 0.37 μM, 0.12 μM, 0.04 μM and 0.013 μM for MCF-7 cells and at 100 μM, 33.3 μM, 11.1 μM, 3.7 μM, 1.23 μM, 0.4 μM and 0.13 μM for MCF-7/MX cells. The final concentration of DMSO in all cases was adjusted to 0.2% v/v.
Both cell lines were cultured in RPMI-1640 supplemented with 10% fetal bovine serum, 2 mM Glutamax, 1 mM sodium pyruvate, 0.1 mM non-essential amino acids, 10 μg/ml recombinant human insulin and 10 mM Hepes. All cell lines were grown at 37° C. in a humidified 5% CO2 atmosphere.
For testing the effect of compounds on cell growth, exponentially growing cells were harvested by trypsinization and plated in fresh growth medium at 50,000 cells/ml, one hundred microlitres cell suspension per well, in a 96-well flat-bottomed microtiter plate (Corning, Costar 3595). Twenty-four hours later, culture medium was replaced with fresh growth medium and varying concentrations of test compound.
For both cell lines, cells were incubated with compound for three days and cellular viability was determined at the end of the incubation by measuring intracellular ATP with ATPLite assay system. All compounds were tested in triplicate.
Effect of compounds on cell viability was calculated by comparing the ATP levels of cells exposed to test compound with those of cells exposed to DMSO. A semi-log plot of relative ATP levels versus compound concentration was used to calculate the compound concentration required to inhibit growth by 50% (IC50). Data was analyzed by Prism software (GraphPad; San Diego, Calif.) by fitting it to a sigmoidal dose response curve. The IC50 values obtained for individual data sets were combined to obtain a mean IC50 and standard deviation of the mean.

Series [2] relates to MCF-7/VP, a multi drug resistant cell line over-expressing MRP-1. Briefly: Cytotoxicity (ATPLite cell growth inhibition), Example 2, MRP-1 over-expressing cells. Type of series: cell-based. The settings on record: Homo sapiens, MCF7-VP; MCF-7/VP cells (MRP-1 over-expressing), 72 hours exposure, ATPLite assay, mean ± standard deviation; read-out: IC50 (concentration that inhibited growth by 50%). An excerpt: Over-expression of the product of the ABCC1 gene encoding the multidrug resistance associated protein 1 confers resistance to a wide variety of agents including etoposide, methotrexate, cisplatins and anthracyclines. […] MCF-7/VP cells, a MCF-7 derivative selected for resistance to etoposide, over-express the MRP-1 protein (1).
B. MCF-7/VP, a multi drug resistant cell line over-expressing MRP-1 was obtained from Dr. Erasmus Schneider, Wadsworth Center, NYS Dept. of Health, Albany, N.Y. 12237.
(§1) All compounds were tested in triplicate.

The subject of series [3] is MCF-7, a human breast cancer cell line. Briefly: Cytotoxicity (ATPLite cell growth inhibition), Example 2, MCF-7 cells. Type of series: cell-based. The settings on record: MCF7a, 72 hours exposure, ATPLite assay, mean ± standard deviation, read-out: IC50 (concentration that inhibited growth by 50%). On the procedure: (§2) A. MCF-7, a human breast cancer cell line was obtained from ATCC (Catalog number: HTB-22)
as §1
In general terms: ATP-based viability assays read luminescence as a measure of living cells.

Series [4] shares this test system. As to the kind of experiment: Cytotoxicity (ATPLite cell growth inhibition), Example 3, MCF-7 cells. Type of series: cell-based. The settings on record: MCF7a, 72 hours exposure, ATPLite assay, mean ± standard deviation, read-out: IC50 (concentration that inhibited growth by 50%). How it is done: as §2, §1
The subject of series [5] is NCI/ADR-RES, a multi drug resistant cell line over-expressing MDR-1. Briefly: Cytotoxicity (ATPLite cell growth inhibition), Example 1, MDR-1 over-expressing cells. Type of series: cell-based. The settings on record: Homo sapiens, MDR1; NCI/ADR-RES cells (MDR-1 over-expressing), 72 hours exposure, ATPLite assay, mean ± standard deviation; read-out: IC50 (concentration that inhibited growth by 50%). On the procedure: B. NCl/ADR-RES, a multi drug resistant cell line over-expressing MDR-1 was obtained from NCl, Frederick, Md. This cell line has previously been called MCF-7/ADR by NCl.
(§3) MCF-7 cells were supplemented additionally with 10 μg/ml recombinant human insulin.
(§4) All compounds were tested triplicate.

A short description of a further series: Oral bioavailability. Type of series: in vivo. The settings on record: oral administration.
Series [6] relates to MCF-7, a human breast cancer cell line. Briefly: Cytotoxicity (ATPLite cell growth inhibition), Example 1, MCF-7 cells. Type of series: cell-based. The conditions noted are these: MCF7a, 72 hours exposure, ATPLite assay, mean ± standard deviation, read-out: IC50 (concentration that inhibited growth by 50%). On the procedure: as §2, §3, §4

For the compound `O=C(Nc1cc(C(F)(F)F)ccc1Oc1ccc(Cl)c2ccccc12)c1cc(Cl)ccc1O` [5-chloro-N-[2-(4-chloro-naphtalen-1-yloxy)-5-trifluoromethyl-phenyl]-2-hydroxy-benzamide], the IC50 in series [1] was found to be 1480 nM; in series [2], 800 nM; in series [3] it was 592 nM; in series [4], 739 nM; in series [5], 754 nM; in series [6], 739 nM. Besides, in series [1], the “Difference in cytotoxic activity between normal (MCF-7) and BCRP over-expressing (MCF-7/MX) cell line” value (from here on “Difference”) was “two-fold; also recorded: twofold”. For the same compound, in “Oral bioavailability”, the “Bioavailability when administered orally” value is “low bioavailability”.

On to `CC[C@@]1(O)C(=O)OCc2c1cc1n(c2=O)Cc2cc3ccccc3nc2-1` [Camptothecin ®], for which, in series [1], the IC50 was found to be 174 nM; the “Difference” value was “one-eighth”. Further, the IC50 in series [4] is 21.9 nM.

As to `COc1cccc2c1C(=O)c1c(O)c3c(c(O)c1C2=O)C[C@@](O)(C(=O)CO)C[C@@H]3O[C@H]1C[C@H](N)[C@@H](O)[C@H](C)O1` [Epirubicin], the IC50 worked out at 1120 nM in series [1], 958 nM in series [2], 150 nM in series [3] and 150 nM in series [4]. For the same compound, the “Difference” value in series [1] is “one-seventh”.

Turning to `CC(=O)O[C@@]12CO[C@@H]1C[C@H](O)[C@@]1(C)C(=O)[C@H](O)C3=C(C)[C@@H](OC(=O)[C@H](O)[C@@H](NC(=O)OC(C)(C)C)c4ccccc4)C[C@@](O)([C@@H](OC(=O)c4ccccc4)[C@H]21)C3(C)C` [Taxotere ®], the IC50 in series [5] was 428 nM; in series [6], 0.5 nM.

With `CC[C@]1(O)C[C@@H]2CN(CCc3c([nH]c4ccccc34)[C@@](C(=O)OC)(c3cc4c(cc3OC)N(C)[C@H]3[C@@](O)(C(=O)OC)[C@H](OC(C)=O)[C@]5(CC)C=CCN6CC[C@]43[C@@H]65)C2)C1` [Vinblastine], the IC50 in series [5] stood at 558 nM; in series [6], 0.6 nM.
